Measurements published in US20250143299A1, “METHODS AND COMPOSITIONS FOR CONTROLLING PESTS IN VEGETABLES” (Globachem NV, priority 2022, published 2025).

Columns and labels:
Type in all cases: in vivo
Myzus persicae = assay: Example 10 potato trial, Myzus persicae (green aphids, MYZUPE) control; conditions: 2600 g/ha (4.0 L/ha), appl. AB, 14 DAB
Description: Potatoes—Myzus persicae (Green Aphids)—MYZUPE
Potatoes, variety Agata, 4 replicates per plot. A water volume of 200 L water/ha was used for each application. Two applications were made at a 14d interval.
Application made at the occurrence of the insects. Application A was made at Stage BBCH 38-41, application B was made 14 days later at Stage BBCH 41-43.
Insects present at the time of application: at App A 93 aphids per 25 leaves at App B in untreated: 160 aphids per 25 leaves

[1] = tested on: Leptinotarsa decemlineata; assay: Example 8 Trial 1 potato, Leptinotarsa decemlineata (Colorado potato beetle) control; conditions: appl. AB, 8 DAB
Description: Potatoes—Leptinotarsa decemlineata (Colorado Potato Beetle)—LEPTNDE
Trial 1: Potatoes, variety Lady Amarilla, 4 replicates per plot, each plot at least 25 m^2. A water volume of 200 L water/ha was used for each application. Two applications were made at a 14d interval.
Application made at the occurrence of the insects. Application A was made at Stage BBCH 36, application B was made 14 days later at Stage BBCH 51.
Insects present at the time of application: at App A 39/10 plants at App B in untreated: 35/10 plants.

[2] = tested on: Leptinotarsa decemlineata; assay: Example 8 Trial 2 potato, Leptinotarsa decemlineata (LEPTNDE) control; conditions: appl. AB
Description: Trial 2: Potatoes, 4 replicates per plot, each plot at least 25 m^2. A water volume of 200 L water/ha was used for each application. Two applications were made at a 14d interval.
Application made at the occurrence of the insects. Application A was made at Stage BBCH 39-41, application B was made 14 days later at Stage BBCH 41-44.
Insects present at the time of application: at App A: 9/10 plants at App B in untreated: 44/10 plants

Aphis fabae = assay: Example 5 pea trial, Aphis fabae (black bean aphid) control; conditions: appl. AB
Method: Peas—Aphis fabae (Black bean aphid)
The trial was conducted on peas, variety Batuta, 4 replicates per plot. A water volume of 200 L water/ha was used for each application. Two applications were made, Application A was made at first infestation and Application B was made 14d later. Each plot at least 12 m^2.
Insects present at the time of application: at App A 197/20 shoots, at App B in untreated: 443/20 shoots.

SMILES: CCCCCCCCC(=O)O [PA, pelargonic acid]
- COUINS, #/25 leaves (Myzus persicae): 92.4 % UNCK
- COUINS # L1-L3/10 plants ([1]; 585 g/ha (0.9 L/ha)): 88.2 % UNCK
- COUINS # L4/10 plants ([1]; 585 g/ha (0.9 L/ha)): 57.9 % UNCK
- COUINS # L1-L3/10 plants ([1]; 975 g/ha (1.5 L/ha)): 17.6 % UNCK
- COUINS # L4/10 plants ([1]; 975 g/ha (1.5 L/ha)): 57.9 % UNCK
- COUINS # L1-L3/10 plants ([1]; 1300 g/ha (2.0 L/ha)): 82.4 % UNCK
- COUINS # L4/10 plants ([1]; 1300 g/ha (2.0 L/ha)): 57.9 % UNCK
- COUINS # L1-L3/10 plants ([1]; 2600 g/ha (4.0 L/ha)): 76.5 % UNCK
- COUINS # L4/10 plants ([1]; 2600 g/ha (4.0 L/ha)): 68.4 % UNCK
- COUINS # L1-L3/10 plants ([2]; 585 g/ha (0.9 L/ha), 7 DAA): 51.7 % UNCK
- COUINS # L4/10 plants ([2]; 585 g/ha (0.9 L/ha), 7 DAA): 45 % UNCK
- COUINS # L1-L3/10 plants ([2]; 585 g/ha (0.9 L/ha), 10 DAB): 68.6 % UNCK
- COUINS # L4/10 plants ([2]; 585 g/ha (0.9 L/ha), 10 DAB): 64.2 % UNCK
- COUINS Adults/10 plants ([2]; 585 g/ha (0.9 L/ha), 10 DAB): 48 % UNCK
- COUINS # L1-L3/10 plants ([2]; 975 g/ha (1.5 L/ha), 7 DAA): 48.5 % UNCK
- COUINS # L4/10 plants ([2]; 975 g/ha (1.5 L/ha), 7 DAA): 35 % UNCK
- COUINS # L1-L3/10 plants ([2]; 975 g/ha (1.5 L/ha), 10 DAB): 76 % UNCK
- COUINS # L4/10 plants ([2]; 975 g/ha (1.5 L/ha), 10 DAB): 77 % UNCK
- COUINS Adults/10 plants ([2]; 975 g/ha (1.5 L/ha), 10 DAB): 55 % UNCK
- COUINS # L1-L3/10 plants ([2]; 1300 g/ha (2.0 L/ha), 7 DAA): 70.9 % UNCK
- COUINS # L4/10 plants ([2]; 1300 g/ha (2.0 L/ha), 7 DAA): 59.9 % UNCK
- COUINS # L1-L3/10 plants ([2]; 1300 g/ha (2.0 L/ha), 10 DAB): 89.8 % UNCK
- COUINS # L4/10 plants ([2]; 1300 g/ha (2.0 L/ha), 10 DAB): 86.2 % UNCK
- COUINS Adults/10 plants ([2]; 1300 g/ha (2.0 L/ha), 10 DAB): 69 % UNCK
- COUINS # L1-L3/10 plants ([2]; 2600 g/ha (4.0 L/ha), 7 DAA): 73.4 % UNCK
- COUINS # L4/10 plants ([2]; 2600 g/ha (4.0 L/ha), 7 DAA): 80.9 % UNCK
- COUINS # L1-L3/10 plants ([2]; 2600 g/ha (4.0 L/ha), 10 DAB): 93.4 % UNCK
- COUINS # L4/10 plants ([2]; 2600 g/ha (4.0 L/ha), 10 DAB): 92.8 % UNCK
- COUINS Adults/10 plants ([2]; 2600 g/ha (4.0 L/ha), 10 DAB): 78.9 % UNCK
- COUINS (count of insects), 20 shoots (Aphis fabae; 585 g/ha (0.9 L/ha), 3 DAA): 7.66 % UNCK
- COUINS (count of insects), 20 shoots (Aphis fabae; 585 g/ha (0.9 L/ha), 3 DAB): 32.43 % UNCK
- COUINS (count of insects), 20 shoots (Aphis fabae; 585 g/ha (0.9 L/ha), 7 DAA): 17.73 % UNCK
- COUINS (count of insects), 20 shoots (Aphis fabae; 585 g/ha (0.9 L/ha), 7 DAB): 33.74 % UNCK
- COUINS (count of insects), 20 shoots (Aphis fabae; 975 g/ha (1.5 L/ha), 3 DAA): 9.21 % UNCK
- COUINS (count of insects), 20 shoots (Aphis fabae; 975 g/ha (1.5 L/ha), 3 DAB): 39.08 % UNCK
- COUINS (count of insects), 20 shoots (Aphis fabae; 975 g/ha (1.5 L/ha), 7 DAA): 22.27 % UNCK
- COUINS (count of insects), 20 shoots (Aphis fabae; 975 g/ha (1.5 L/ha), 7 DAB): 51.21 % UNCK
- COUINS (count of insects), 20 shoots (Aphis fabae; 1300 g/ha (2.0 L/ha), 3 DAA): 44.25 % UNCK
- COUINS (count of insects), 20 shoots (Aphis fabae; 1300 g/ha (2.0 L/ha), 3 DAB): 65.79 % UNCK
- COUINS (count of insects), 20 shoots (Aphis fabae; 1300 g/ha (2.0 L/ha), 7 DAA): 63.58 % UNCK
- COUINS (count of insects), 20 shoots (Aphis fabae; 1300 g/ha (2.0 L/ha), 7 DAB): 65.14 % UNCK
- COUINS (count of insects), 20 shoots (Aphis fabae; 2600 g/ha (4.0 L/ha), 3 DAA): 72.11 % UNCK
- COUINS (count of insects), 20 shoots (Aphis fabae; 2600 g/ha (4.0 L/ha), 3 DAB): 76.77 % UNCK
- COUINS (count of insects), 20 shoots (Aphis fabae; 2600 g/ha (4.0 L/ha), 7 DAA): 82.08 % UNCK
- COUINS (count of insects), 20 shoots (Aphis fabae; 2600 g/ha (4.0 L/ha), 7 DAB): 76.67 % UNCK
